Where “and” joins values, the source holds several entries; their conditions need not be identical. Equal values may be shown once.
Tests used:
COX enzyme = biological target: T1, COX enzyme (Coxsackievirus B5, UniProt Q03053); assay: Assay optimization - solvent with COX enzyme (1:10); type: biochemical, Enterovirus (COX)
T1 construct: 3D structure modeling of enterovirus 3C protease with it substrate Camb2
Protocol: Various solvents were tested in order to optimize substrate solubility and stability. […] All the solvents tested were prepared at 0-10% concentrations in 2× reaction buffer and the final concentrations tested were 0-5%. […] Camb 2 was added to the final 2× buffer. For 1,2-Propanediol and 1,3-Propanediol, Camb 2 was first dissolved in the solvent at the appropriate concentration. The solvent+camb2 was then added to 3× reaction buffer to make a final 2× reaction buffer+2 uM camb2. […]
1,3-Propanediol with COX enzyme (1:10):

3C protease (EV assay) = assay: Assay optimization - solvent (EV assay, Camb 2); type: biochemical, Enterovirus; details: for effect on reaction rate: all concentrations tested
Protocol: Various solvents were tested in order to optimize substrate solubility and stability. […] All the solvents tested were prepared at 0-10% concentrations in 2× reaction buffer and the final concentrations tested were 0-5%. […] Camb 2 was added to the final 2× buffer. For 1,2-Propanediol and 1,3-Propanediol, Camb 2 was first dissolved in the solvent at the appropriate concentration. The solvent+camb2 was then added to 3× reaction buffer to make a final 2× reaction buffer+2 uM camb2. All the experiments were performed in the TECAN Polarstar n=1 in triplicates.

[1] = biological target: T2, Recombinant protease from enterovirus strain Echo (Echovirus 30, UniProt Q9WN78); assay: Enterovirus assay optimization with recombinant Echo protease (plates, tubes, buffer, Na2SO4, substrate concentration, diluent); type: biochemical; details: for Positive control, Average / Positive control: substrate stock diluted 1:8 in this diluent, 0.25 uM final, analysis 5-10 min; for Positive control: single repetition
T2 construct: Phosphoramidon was tested using the Echovirus 3C recombinant
Protocol: • Inhibitor Cocktail: Inhibitors cocktail I10 • Enzyme dilution buffer: −25 mM HEPES pH 7.5, 150 mM NaCl, 1 mM EDTA, 10% Glycerol, 0.5 mg/ml BSA, 1M Sucrose, 0.1% Sodium azid. • 2× reaction buffer, Buffer B: 50 mM HEPES, 10 mM EDTA, 10 mM EGTA, 1.2M Na2SO4, sodium azide 0.1%, pH 8.5 • Artificial CSF: NaCl 125 mM, KCl 2.5 mM, MgCl 1 mM, NaH2PO4 1.25 mM, CaCl2 2 mM, Glucose 2.5 mM, NaHCO3 25 mM, 0.1% Sodium azide, HEPES 25 mM, pH 7.45. • Enzyme: Recombinant protease from enterovirus strain “Echo” [dilution 1:18 • Substrate: Camb-2.3, 1 mM, Camb-2.4, 2 mM. (Different batches for the same Camb2 sequence) • HEPES Buffer: HEPES 25 mM • NB tubes: Sigma Cat #Z666505 • Amber tubes: USA scientific Inc. Cat. 1620-2707 • 96 well Plate: Dark bottom NB plate—Greiner Cat. 655900
• 1. Add artiCSF±HEPES buffer to plate • 2. Prepare 400 ul HEPES buffer±RB+substrate (camb2.3 and 2.4) in both amber and NB tubes. • 3. Add enzyme to wells • 4. Add HEPES buffer±RB+substrate to wells with multichannel pipette.
The reaction buffer is a part of the enterovirus test kit of the invention. The camb-2 substrate is dissolved in the reaction buffer. The reaction buffer contains different salts to allow the tested enzyme to work at the optimal conditions. The current reaction buffer composition is: HEPES pH 7.5, 300 mM NaCl, 10 mM EDTA, 10 mM EGTA, 10% Glycerol, 1.8M Na2SO4, 0.1% Sodium azide. The amount of salt in the reaction buffer is high and allows optimal enzymatic activity. However, under these conditions, substrate solubility is affected. Thus, the reaction buffer was improved to increase substrate solubility without reducing enzymatic activity of the tested 3C protease.
300 mM NaCl and 10% glycerol was removed from the reaction buffer and several reduced concentrations of Na2SO4 (starting at 0.9M) were tested in order to determine the minimal salt requirements of the assay (Tables 31-34). Experiments were repeated at least three times by two different scientists.
CSF sample was incubated with 50 nM Echo protease and 2× reaction buffer with 0.6M Na2SO4. Also included were 3 blanks and 9 positive control repetitions.
The effect of reduction in substrate (camb2) concentration and increase in measurement time was tested. The experiment was performed at a final substrate (camb2.5) concentrations of 1, 0.5, 0.25 and 0.125 μM and data analysis was made at different time intervals: 1.5-5, 5-12 and 5-22 min (FIGS. 27A-C).
Sodium sulfate generally has an ambivalent effect: it increase 3C protease activity and reduces substrate solubility. Once it was decided that the substrate concentration would be reduced to 0.25 uM and results analyzed at between 5-10 min, the Na2SO4 concentration was optimized. […] 0.6-0.4M Na2SO4 was tested under the new assay conditions.
• Data analysis was performed between 5-10 min. • The assay activity was measured in triplicates by three scientists. The results in Table 51 are the average of the three triplicates.
To examine the effect of substrate dilution in DMSO vs. DDW under the new assay conditions, substrate stock (1 mM in DMSO) was diluted 1:8 in DMSO or in DDW to yield the working stock. The working stocks were further diluted 1:250 in 2× RB for a concentration of 0.5 uM (0.25 uM final in the well).
The assay activity was measured in triplicates by three scientists. The results in Table 52 are the average of the three triplicates.

[2] = 1,2-propanediol 1% final, Table 50 Galaxy FLUOstar with nonbinding microplate
[3] = 1,2-propanediol 2.5% final, Table 49 TECAN with nonbinding microplate
[4] = 1,2-propanediol 2.5% final, Table 50 Galaxy FLUOstar with nonbinding microplate
[5] = 1,2-propanediol 4% final, Table 49 TECAN with nonbinding microplate
[6] = 1,2-propanediol 4% final, Table 50 Galaxy FLUOstar with nonbinding microplate
[7] = 1,2-propanediol 5% final, Table 49 TECAN with nonbinding microplate
[8] = 1,2-propanediol 5% final, Table 50 Galaxy FLUOstar with nonbinding microplate
[9] = 1,3-propanediol 1% final, Table 47 GalaxyFLUOstar, second sub-table
[10] = 1,3-propanediol 2.5% final, Table 47 GalaxyFLUOstar, second sub-table
[11] = 1,3-propanediol 2.5% final, Table 48 TECAN with nonbiding plate
[12] = 1,3-propanediol 4% final, Table 47 GalaxyFLUOstar, second sub-table
[13] = 1,3-propanediol 4% final, Table 48 TECAN with nonbiding plate
[14] = 1,3-propanediol 5% final, Table 47 GalaxyFLUOstar, first sub-table
[15] = 1,3-propanediol 5% final, Table 47 GalaxyFLUOstar, second sub-table
[16] = 1,3-propanediol 5% final, Table 48 TECAN with nonbiding plate
[17] = Acetonitrile 0.5% final, Table 43 Experiment 2
[18] = Acetonitrile 1% final, Table 42 Experiment 1
[19] = Acetonitrile 1% final, Table 43 Experiment 2
[20] = Acetonitrile 2.5% final, Table 42 Experiment 1
[21] = Acetonitrile 4% final, Table 42 Experiment 1
[22] = Acetonitrile 5% final, Table 42 Experiment 1
[23] = Isopropanol 1% final, Table 39 Experiment 1
[24] = Isopropanol 1% final, Table 40 Experiment 2
[25] = Isopropanol 2.5% final, Table 39 Experiment 1
[26] = Isopropanol 2.5% final, Table 40 Experiment 2
[27] = Isopropanol 4% final, Table 39 Experiment 1
[28] = Isopropanol 4% final, Table 40 Experiment 2
[29] = Isopropanol 5% final, Table 39 Experiment 1
[30] = Isopropanol 5% final, Table 40 Experiment 2

T2 sequence (Q9WN78 1550-1732): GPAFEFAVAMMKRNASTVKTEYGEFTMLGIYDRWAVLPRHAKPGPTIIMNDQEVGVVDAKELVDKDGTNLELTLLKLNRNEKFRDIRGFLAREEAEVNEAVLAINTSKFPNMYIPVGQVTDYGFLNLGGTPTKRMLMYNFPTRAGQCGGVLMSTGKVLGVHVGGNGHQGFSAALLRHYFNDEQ
T1 sequence (Q03053 1541-1723): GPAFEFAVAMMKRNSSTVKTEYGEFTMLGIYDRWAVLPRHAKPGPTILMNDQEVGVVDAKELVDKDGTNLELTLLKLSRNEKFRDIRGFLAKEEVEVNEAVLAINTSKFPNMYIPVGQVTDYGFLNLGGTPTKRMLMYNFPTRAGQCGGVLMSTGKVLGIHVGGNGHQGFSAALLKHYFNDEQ

CC(O)CO (stereo not drawn) [1,2-propanediol, 1,2-Propanediol] was tested, and the “Reaction rate Average P.C” value (COX enzyme; 1,2-propanediol 1% final, Table 49 TECAN with nonbinding microplate) was 8588.13 RFU/min, the “% Loss” value (COX enzyme; [2]) was 9% and the “Reaction rate Average P.C” value (COX enzyme; [2]) was 5689.6 RFU/min. The “% Loss” value (COX enzyme; [3]) was 20%, the “Reaction rate Average P.C” value (COX enzyme; [3]) was 6521.1 RFU/min and the “% Loss” value (COX enzyme; [4]) was 22%. For the same compound, the “Reaction rate Average P.C” value (COX enzyme; [4]) was 4838.97 RFU/min, the “% Loss” value (COX enzyme; [5]) was 30% and the “Reaction rate Average P.C” value (COX enzyme; [5]) was 5013.13 RFU/min. For the same compound, the “% Loss” value (COX enzyme; [6]) was 30%, the “Reaction rate Average P.C” value (COX enzyme; [6]) was 4291.04 RFU/min and the “% Loss” value (COX enzyme; [7]) was 44%. The “Reaction rate Average P.C” value (COX enzyme; [7]) was 4509 RFU/min, the “% Loss” value (COX enzyme; [8]) was 47% and the “Reaction rate Average P.C” value (COX enzyme; [8]) was 3278.19 RFU/min. For the same compound, the “effect on enzymatic activity” value (COX enzyme; all concentrations tested except 1%) was “inhibited enzymatic activity”.

With OCCCO [1,3-propanediol, 1,3-Propanediol] the “Reaction rate Average P.C” value (COX enzyme; 1,3-propanediol 1% final, Table 47 GalaxyFLUOstar, first sub-table) was 3948.19 RFU/min, the “% Loss” value (COX enzyme; [9]) was 20% and the “Reaction rate Average P.C” value (COX enzyme; [9]) was 4125.89 RFU/min. The “Reaction rate Average P.C” value (COX enzyme; 1,3-propanediol 1% final, Table 48 TECAN with nonbiding plate) was 7620.53 RFU/min, the “% Loss” value (COX enzyme; [10]) was 11% and the “Reaction rate Average P.C” value (COX enzyme; [10]) was 4491.13 RFU/min. For the same compound, the “% Loss” value (COX enzyme; [11]) was 36%, the “Reaction rate Average P.C” value (COX enzyme; [11]) was 4681.05 RFU/min and the “% Loss” value (COX enzyme; [12]) was 42%. For the same compound, the “Reaction rate Average P.C” value (COX enzyme; [12]) was 2956.26 RFU/min, the “% Loss” value (COX enzyme; [13]) was 2% and the “Reaction rate Average P.C” value (COX enzyme; [13]) was 7238.7 RFU/min. The “% Loss” value (COX enzyme; [14]) was 10%, the “Reaction rate Average P.C” value (COX enzyme; [14]) was 3072.45 RFU/min and the “% Loss” value (COX enzyme; [15]) was 47%. For the same compound, the “Reaction rate Average P.C” value (COX enzyme; [15]) was 2389.47 RFU/min, the “% Loss” value (COX enzyme; [16]) was 20% and the “Reaction rate Average P.C” value (COX enzyme; [16]) was 5929.86 RFU/min.

In the case of CC#N [Acetonitrile], the “% Loss” value (3C protease (EV assay); [17]) is reported as 7%, the “Reaction rate Average P.C” value (3C protease (EV assay); [17]) is reported as 1257.5 RFU/min and the “% Loss” value (3C protease (EV assay); [18]) is reported as 43%. For the same compound, the “Reaction rate Average P.C” value (3C protease (EV assay); [18]) was 1106.6 RFU/min, the “% Loss” value (3C protease (EV assay); [19]) was 25% and the “Reaction rate Average P.C” value (3C protease (EV assay); [19]) was 1002.48 RFU/min. For the same compound, the “% Loss” value (3C protease (EV assay); [20]) was 57%, the “Reaction rate Average P.C” value (3C protease (EV assay); [20]) was 846.73 RFU/min and the “% Loss” value (3C protease (EV assay); [21]) was 65%. For the same compound, the “Reaction rate Average P.C” value (3C protease (EV assay); [21]) was 706.1 RFU/min, the “% Loss” value (3C protease (EV assay); [22]) was 84% and the “Reaction rate Average P.C” value (3C protease (EV assay); [22]) was 308.48 RFU/min. The “effect on reaction rate” value (3C protease (EV assay)) was “loss in reaction rate”.

With O [DDW] the “reaction rate lower compared to DMSO” value ([1]; substrate diluted with DDW) was 25%, the “Positive control, Average” value [1] was 789.5 RFU/min and the Positive control [1] was 747 ± 68 RFU/min and 832 ± 64 RFU/min.

C[S+](C)[O-] [DMSO] was tested, and the “Positive control, Average” value [1] was 1005 RFU/min, the Positive control [1] was 1023 ± 36 RFU/min and 987 ± 126 RFU/min and the “Reaction rate Average P.C” value (3C protease (EV assay); DMSO 1% final, Table 41) was 1270 RFU/min. The “% Loss” value (3C protease (EV assay); DMSO 2.5% final, Table 41) was 7%, the “Reaction rate Average P.C” value (3C protease (EV assay); DMSO 2.5% final, Table 41) was 1139.26 RFU/min and the “Reaction rate Average P.C” value (3C protease (EV assay); DMSO 4% final, Table 41) was 1288 RFU/min. For the same compound, the “effect on reaction rate” value (3C protease (EV assay)) was “no loss in reaction rate”.

For CC(C)O [Isopropanol], the “salt precipitation in reaction buffer” value (3C protease (EV assay); 4 and 5% final) was “salt precipitation formed”, the “% Loss” value (3C protease (EV assay); [23]) was 45% and the “Reaction rate Average P.C” value (3C protease (EV assay); [23]) was 641.57 RFU/min. The “% Loss” value (3C protease (EV assay); [24]) was 35%, the “Reaction rate Average P.C” value (3C protease (EV assay); [24]) was 1047.42 RFU/min and the “% Loss” value (3C protease (EV assay); [25]) was 3%. For the same compound, the “Reaction rate Average P.C” value (3C protease (EV assay); [25]) was 1143.93 RFU/min, the “% Loss” value (3C protease (EV assay); [26]) was 50% and the “Reaction rate Average P.C” value (3C protease (EV assay); [26]) was 806 RFU/min. The “% Loss” value (3C protease (EV assay); [27]) was 100%, the “Reaction rate Average P.C” value (3C protease (EV assay); [27]) was −2.7 RFU/min and the “% Loss” value (3C protease (EV assay); [28]) was 42%. The “Reaction rate Average P.C” value (3C protease (EV assay); [28]) was 676.0 RFU/min, the “% Loss” value (3C protease (EV assay); [29]) was 100% and the “Reaction rate Average P.C” value (3C protease (EV assay); [29]) was −4.19 RFU/min. For the same compound, the “% Loss” value (3C protease (EV assay); [30]) was 75%, the “Reaction rate Average P.C” value (3C protease (EV assay); [30]) was 394.82 RFU/min and the “effect on reaction rate” value (3C protease (EV assay)) was “loss in reaction rate”.
